Tests used:
[1] = system: Hepatitis C virus; experiment: Antiviral activity against HCV genotype 4a ED-43/SG-feo (VYG) replicons infected in human Huh7.5 cells assessed as inhibition of viral replication after 72 hrs by immunofluorescence assay; format: functional, organism-based, Hepacivirus hominis; conditions: Huh-7, 72 h
[2] = Cytotoxicity against human Huh7.5 cells infected with HCV genotype 4a assessed as morphological changes after 72 hrs by inverted light microscopy; format: cell-based, Huh-7
[3] = Cytotoxicity against human Huh7.5 cells infected with HCV genotype 4a assessed as cell viability after 72 hrs by trypan blue dye-based phase contrast microscopy; conditions: Huh-7, 72 h
[4] = system: Hepatitis C virus; experiment: Antiviral activity against HCV genotype 4a ED-43/SG-feo (VYG) replicons infected in human Huh7.5 cells assessed as inhibition of viral replication at non-toxic dose after 72 hrs by immunofluorescence assay; format: functional, Hepacivirus hominis, Huh-7

Row | IC50 [1] | SMILES | CC50 at 72 h [2] | CC50 [3] | inhibition (INH) [4]
1 | > 150 µM | O=c1[nH]cnc2c1c(-c1ccccc1)c(-c1ccccc1)n2-c1ccc(Cl)cc1 | 151 µM | 151 µM | 
2 | > 150 µM | Clc1ncnc2c1c(-c1ccccc1)c(-c1ccccc1)n2C1CCCCC1 | 155 µM | 155 µM | 
3 | > 150 µM | S=c1[nH]cnc2c1c(-c1ccccc1)c(-c1ccccc1)n2-c1cccc(Cl)c1 | 145 µM | 145 µM | 
4 | > 150 µM | Cc1ccccc1Nc1ncnc2c1c(-c1ccccc1)c(-c1ccccc1)n2C1CCCCC1 | 153 µM | 153 µM | 
5 | > 150 µM | N#Cc1c(-c2ccccc2)c(-c2ccccc2)n(-c2ccc(Cl)cc2)c1N | 189 µM | 189 µM | 
6 | > 150 µM | c1ccc(-c2c(-c3ccccc3)n(C3CCCCC3)c3ncn4cnnc4c23)cc1 | 178 µM | 178 µM | 
7 | > 150 µM | Cc1nnc2c3c(-c4ccccc4)c(-c4ccccc4)n(C4CCCCC4)c3ncn12 | 172 µM | 172 µM | 
8 | > 150 µM | c1ccc(Nc2ncnc3c2c(-c2ccccc2)c(-c2ccccc2)n3C2CCCCC2)cc1 | 158 µM | 158 µM | 
9 | > 150 µM | Clc1cccc(-n2c(-c3ccccc3)c(-c3ccccc3)c3c(Cl)ncnc32)c1 | 168 µM | 168 µM | 0%
10 | 93.6 µM | Clc1ccc(/C=N/Nc2ncnc3c2c(-c2ccccc2)c(-c2ccccc2)n3-c2ccc(Cl)cc2)cc1 | 131 µM | 131 µM | 70%
11 | 92.4 µM | Cc1ccccc1Nc1ncnc2c1c(-c1ccccc1)c(-c1ccccc1)n2-c1cccc(Cl)c1 | 144 µM | 144 µM | 76.7%
12 | > 150 µM | NNc1ncnc2c1c(-c1ccccc1)c(-c1ccccc1)n2C1CCCCC1 | 157 µM | 157 µM | 
13 | > 150 µM | Cc1ccc(Nc2ncnc3c2c(-c2ccccc2)c(-c2ccccc2)n3-c2ccc(Cl)cc2)cc1 | 123 µM | 123 µM | 
14 | > 150 µM | Clc1cccc(-n2c(-c3ccccc3)c(-c3ccccc3)c3c2ncn2cnnc32)c1 | 190 µM | 190 µM | 
15 | > 150 µM | Cc1nc2c(c(-c3ccccc3)c(-c3ccccc3)n2C2CCCCC2)c(=O)[nH]1 | 130 µM | 130 µM | 
16 | > 150 µM | COc1ccc(/C=N/Nc2ncnc3c2c(-c2ccccc2)c(-c2ccccc2)n3-c2ccc(Cl)cc2)cc1 | 113 µM | 113 µM | 
17 | > 150 µM | Cc1cccc(Nc2ncnc3c2c(-c2ccccc2)c(-c2ccccc2)n3C2CCCCC2)c1 | 131 µM | 131 µM | 
18 | > 150 µM | N#Cc1c(-c2ccccc2)c(-c2ccccc2)n(C2CCCCC2)c1N | 176 µM | 176 µM | 
19 | > 150 µM | Cc1nc2c(c(-c3ccccc3)c(-c3ccccc3)n2-c2ccc(Cl)cc2)c(=O)[nH]1 | 97 µM | 97 µM | 
20 | > 150 µM | CC(=O)Nc1c(C#N)c(-c2ccccc2)c(-c2ccccc2)n1C1CCCCC1 | 183 µM | 183 µM | 
21 | > 150 µM | Cc1cccc(Nc2ncnc3c2c(-c2ccccc2)c(-c2ccccc2)n3-c2cccc(Cl)c2)c1 | 103 µM | 103 µM | 
22 | > 150 µM | S=c1[nH]cnc2c1c(-c1ccccc1)c(-c1ccccc1)n2-c1ccc(Cl)cc1 | 121 µM | 121 µM | 
23 | > 150 µM | O=c1[nH]nc2c3c(-c4ccccc4)c(-c4ccccc4)n(-c4ccc(Cl)cc4)c3ncn12 | 160 µM | 160 µM | 
24 | > 150 µM | Cc1ccc(Nc2ncnc3c2c(-c2ccccc2)c(-c2ccccc2)n3-c2cccc(Cl)c2)cc1 | 123 µM | 123 µM | 
25 | > 150 µM | Cc1ccc(Nc2ncnc3c2c(-c2ccccc2)c(-c2ccccc2)n3C2CCCCC2)cc1 | 153 µM | 153 µM | 
26 | > 150 µM | Cc1nnc2c3c(-c4ccccc4)c(-c4ccccc4)n(-c4ccc(Cl)cc4)c3ncn12 | 138 µM | 138 µM | 
27 | > 150 µM | NNc1ncnc2c1c(-c1ccccc1)c(-c1ccccc1)n2-c1ccc(Cl)cc1 | 146 µM | 146 µM | 0%

Second part, the compound before the results:

Row | SMILES | IC50 [1] | CC50 at 72 h [2] | CC50 [3] | inhibition (INH) [4]
28 | Clc1cccc(-n2c(-c3ccccc3)c(-c3ccccc3)c3c(N/N=C/c4ccccc4)ncnc32)c1 | > 150 µM | 140 µM | 140 µM | 
29 | Clc1ccc(-n2c(-c3ccccc3)c(-c3ccccc3)c3c(N/N=C/c4ccccc4)ncnc32)cc1 | > 150 µM | 140 µM | 140 µM | 
30 | NNc1ncnc2c1c(-c1ccccc1)c(-c1ccccc1)n2-c1cccc(Cl)c1 | > 150 µM | 146 µM | 146 µM | 0%
31 | S=c1[nH]nc2c3c(-c4ccccc4)c(-c4ccccc4)n(-c4ccc(Cl)cc4)c3ncn12 | > 150 µM | 138 µM | 138 µM | 
32 | S=c1[nH]nc2c3c(-c4ccccc4)c(-c4ccccc4)n(C4CCCCC4)c3ncn12 | > 150 µM | 188 µM | 188 µM | 
33 | Clc1cccc(-n2c(-c3ccccc3)c(-c3ccccc3)c3c(Nc4ccccc4)ncnc32)c1 | > 150 µM | 148 µM | 148 µM | 
34 | S=c1[nH]nc2c3c(-c4ccccc4)c(-c4ccccc4)n(-c4cccc(Cl)c4)c3ncn12 | > 150 µM | 184 µM | 184 µM | 
35 | O=c1[nH]cnc2c1c(-c1ccccc1)c(-c1ccccc1)n2-c1cccc(Cl)c1 | > 150 µM | 151 µM | 151 µM | 
36 | Clc1ccc(/C=N/Nc2ncnc3c2c(-c2ccccc2)c(-c2ccccc2)n3-c2cccc(Cl)c2)cc1 | 102 µM | 131 µM | 131 µM | 63.3%
37 | CC(=O)Nc1c(C#N)c(-c2ccccc2)c(-c2ccccc2)n1-c1ccc(Cl)cc1 | > 150 µM | 146 µM | 146 µM | 
38 | Cc1cccc(Nc2ncnc3c2c(-c2ccccc2)c(-c2ccccc2)n3-c2ccc(Cl)cc2)c1 | > 150 µM | 1020 µM | 1020 µM | 
39 | Cc1cc(C)n(-c2ncnc3c2c(-c2ccccc2)c(-c2ccccc2)n3-c2cccc(Cl)c2)n1 | > 150 µM | 147 µM | 147 µM | 
40 | Clc1ccc(-n2c(-c3ccccc3)c(-c3ccccc3)c3c2ncn2cnnc32)cc1 | > 150 µM | 190 µM | 190 µM | 
41 | Cc1ccccc1Nc1ncnc2c1c(-c1ccccc1)c(-c1ccccc1)n2-c1ccc(Cl)cc1 | 82.1 µM | 144 µM | 144 µM | 90%
42 | O=c1[nH]nc2c3c(-c4ccccc4)c(-c4ccccc4)n(C4CCCCC4)c3ncn12 | > 150 µM | 171 µM | 171 µM | 
43 | Clc1ccc(/C=N/Nc2ncnc3c2c(-c2ccccc2)c(-c2ccccc2)n3C2CCCCC2)cc1 | > 150 µM | 158 µM | 158 µM | 
44 | O=c1[nH]cnc2c1c(-c1ccccc1)c(-c1ccccc1)n2C1CCCCC1 | > 150 µM | 190 µM | 190 µM | 
45 | N#Cc1c(-c2ccccc2)c(-c2ccccc2)n(-c2cccc(Cl)c2)c1N | > 150 µM | 189 µM | 189 µM | 
46 | COc1ccc(/C=N/Nc2ncnc3c2c(-c2ccccc2)c(-c2ccccc2)n3-c2cccc(Cl)c2)cc1 | > 150 µM | 151 µM | 151 µM | 
47 | O=c1[nH]nc2c3c(-c4ccccc4)c(-c4ccccc4)n(-c4cccc(Cl)c4)c3ncn12 | > 150 µM | 183 µM | 183 µM | 
48 | C(=N\Nc1ncnc2c1c(-c1ccccc1)c(-c1ccccc1)n2C1CCCCC1)/c1ccccc1 | > 150 µM | 148 µM | 148 µM | 
49 | Cc1cc(C)n(-c2ncnc3c2c(-c2ccccc2)c(-c2ccccc2)n3-c2ccc(Cl)cc2)n1 | > 150 µM | 147 µM | 147 µM | 
50 | Cc1nc2c(c(-c3ccccc3)c(-c3ccccc3)n2-c2cccc(Cl)c2)c(=O)[nH]1 | > 150 µM | 97 µM | 97 µM | 
51 | Cc1nnc2c3c(-c4ccccc4)c(-c4ccccc4)n(-c4cccc(Cl)c4)c3ncn12 | > 150 µM | 161 µM | 161 µM | 
52 | S=c1[nH]cnc2c1c(-c1ccccc1)c(-c1ccccc1)n2C1CCCCC1 | > 150 µM | 130 µM | 130 µM | 
53 | COc1ccc(/C=N/Nc2ncnc3c2c(-c2ccccc2)c(-c2ccccc2)n3C2CCCCC2)cc1 | > 150 µM | 140 µM | 140 µM | 
54 | Clc1ccc(-n2c(-c3ccccc3)c(-c3ccccc3)c3c(Cl)ncnc32)cc1 | 108 µM | 120 µM | 120 µM | 73.3%
55 | Clc1ccc(-n2c(-c3ccccc3)c(-c3ccccc3)c3c(Nc4ccccc4)ncnc32)cc1 | > 150 µM | 127 µM | 127 µM | 
56 | CC(=O)Nc1c(C#N)c(-c2ccccc2)c(-c2ccccc2)n1-c1cccc(Cl)c1 | > 150 µM | 146 µM | 146 µM | 
57 | Cc1cc(C)n(-c2ncnc3c2c(-c2ccccc2)c(-c2ccccc2)n3C2CCCCC2)n1 | > 150 µM | 156 µM | 156 µM | 
